{"source": "patent EP4001271A1", "about": "“CRYSTALLINE FORM OF 2-CHLORO-N-CYCLOPROPYL-5-[1-[2,6-DICHLORO-4-[1,2,2,2-TETRAFLUORO-1- (TRIFLUOROMETHYL)ETHYL]PHENYL]PYRAZOL-4-YL]-N-METHYL-PYRIDINE-3-CARBOXAMIDE” (Bayer Aktiengesellschaft, priority 2020, dated 2022)", "assay_type_in_all_cases": "physicochemical", "key": {"[1]": {"experiment": "Quantitative solubility in solvents, stepwise solvent addition with visual check", "conditions": "read-out: solubility (concentration in solvent)", "protocol": "The solubility of the active provided in Example 1 was further investigated in various solvents (entry 1 to 14 of Table 6). For the determination of the quantitative solubility, the respective solvent(-mixture) was added to approx. 40 mg of the solid, up to a maximum solvent addition of 2 mL in 50 - 200 µL steps. The vials were sealed between each addition of the solvent and the solubility was checked visually. […] Optically clear solutions were filtered via a so-called syringe prefilter and evaporated to dryness at different temperatures. Furthermore, cooling crystallizations were carried out. Undissolved substances were stirred for one week at room temperature in the respective anti-solvent. Table 5. Selection of solvents and anti-solvents\nBased on the solvents and anti-solvents from Table 5, crystallization experiments, listed in Table 6, were carried out to obtain new solid forms of the active provided in Example 1. X-ray powder diffraction was used to assess whether a new phase has been formed."}, "[2]": {"experiment": "DVS water sorption study (hydrate formation)", "conditions": "0 to 90% RH and back in 10% increments", "protocol": "The water sorption was determined using a DVS Resolution (London, UK) gravimetric sorption analyzer. The sample was dried at 0% relative humidity for 1000 minutes, after which the dry mass was recorded. Humidity was ramped in 10% increments to 90% RH and then back to 0% RH. The equilibrium criterion was set to a relative mass change of dm/dt=0.002%/minute."}, "[3]": {"experiment": "Storage experiment, influence of temperature on stability of crystalline form A (HPLC purity, XRD form)", "conditions": "for Purity / remaining at 672 h / remaining at 2016 h / remaining at 4032 h: HPLC, 1 mg/2mL ACN; for remaining at 672 h / remaining at 2016 h / remaining at 4032 h: solid storage", "protocol": "(§1) For Powder X-Ray Diffraction (XRD) the samples were placed into standard glass capillaries (∅ = 0.7 mm). The measurements were performed at room temperature with a D8 Bruker Advance Diffractometer (Cu-Kα1 = 1.5406 Å, Johansson primary beam monochromator, position sensitive detector) in transmission mode with rotation of the sample. Data were collected in a two-theta range of 2 - 38°. The tube voltage and current were 40 kV and 40 mA, respectively. [table] [table] Storage experiments in different environments (25°C, 50°C, 25°C/85 % RH) were performed to investigate the influence of temperature and moisture on the stability of crystalline form A of the compound of formula (I). […] Two samples of crystalline form A were stored at 25°C and 50°C, respectively (see Table 7). The samples were analyzed after 0, 1, 3, and 6 months by DSC, TGA, spectroscopy, X-ray powder diffraction, and HPLC (measurements for chemical stability). […] Exemplarily, the HPLC results are disclosed in Table 7. Table 7. Influence of temperature after four, 12, and 24 weeks. Purity determined by HPLC. ACN denotes acetonitrile. *entry 16 of Table 6"}, "[4]": {"experiment": "Storage experiment, influence of humidity on stability of crystalline form A (HPLC purity, XRD form)", "protocol": "as §1, with “25°C/approx. 85 % rel. humidity” for “25°C and 50°C, respectively”, “8).” for “7).”, “8.” for “7.”, “humidity 0, 1, 3” for “temperature after four, 12,”, “6 months.” for “24 weeks.”"}}, "note": "Like-named read-outs stand apart in the source and are kept apart here."}
{"smiles": "CN(C(=O)c1cc(-c2cnn(-c3c(Cl)cc(C(F)(C(F)(F)F)C(F)(F)F)cc3Cl)c2)cnc1Cl)C1CC1", "note": "[compound of formula (I), 2-Chloro-N-cyclopropyl-5-[1-[2,6-dichloro-4-[1,2,2,2-tetrafluoro-1-(trifluoromethyl)ethyl]phenyl]pyrazol-4-yl]-N-methyl-pyridine-3-carboxamide]", "values": [{"measurement": "solubility", "setting": "[1]; 3-methyl-1-butanol, organic solvent or mixture, 3-methyl-1-butanol, entry 9, evaporation 50°C", "value": 21, "unit": "mg/mL"}, {"measurement": "solubility", "setting": "[1]; acetonitrile, organic solvent or mixture, acetonitrile, entry 14, evaporation at ambient conditions", "value": 30, "unit": "mg/mL"}, {"measurement": "solubility", "setting": "[1]; cyclohexane, organic solvent or mixture, cyclohexane (anti-solvent, not completely dissolved), entry 8, slurry 1 week", "value": 19, "unit": "mg/mL"}, {"measurement": "solubility", "setting": "[1]; ethanol, organic solvent or mixture, EtOH, entry 5, evaporation at ambient conditions", "value": 25, "unit": "mg/mL"}, {"measurement": "solubility", "setting": "[1]; heptane, organic solvent or mixture, heptane (anti-solvent, not completely dissolved), entry 7, slurry 1 week", "value": 19, "unit": "mg/mL"}, {"measurement": "solubility", "setting": "[1]; isopropyl alcohol, organic solvent or mixture, isopropyl alcohol, entry 1, clear solution, evaporation at ambient conditions", "value": 17, "unit": "mg/mL"}, {"measurement": "solubility", "setting": "[1]; isopropyl alcohol/propylene carbonate 65:35, organic solvent or mixture, isopropyl alcohol/propylene carbonate 65:35 %w/w, entry 3, slurry 1 week", "value": 268, "unit": "mg/mL"}, {"measurement": "solubility", "setting": "[1]; isopropyl alcohol/propylene carbonate 65:35, organic solvent or mixture, isopropyl alcohol/propylene carbonate 65:35 %w/w, entry 4, evaporation 50°C", "value": 93, "unit": "mg/mL"}, {"measurement": "solubility", "setting": "[1]; propylene carbonate, organic solvent or mixture, propylene carbonate, entry 2, slurry 1 week", "value": 276, "unit": "mg/mL"}, {"measurement": "solubility", "setting": "[1]; water, H2O (anti-solvent, not completely dissolved), entry 6, slurry 1 week", "value": 19, "unit": "mg/mL"}]}
{"smiles": "CN(C(=O)c1cc(-c2cnn(-c3c(Cl)cc(C(F)(C(F)(F)F)C(F)(F)F)cc3Cl)c2)cnc1Cl)C1CC1", "note": "[crystalline form A, 2-chloro-N-cyclopropyl-5-[1-[2,6-dichloro-4-[1,2,2,2-tetrafluoro-1-(trifluoromethyl)ethyl]phenyl]pyrazol-4-yl]-N-methyl-pyridine-3-carboxamide]", "values": [{"measurement": "hydrate formation", "setting": "[2]", "value": "does not form hydrates"}, {"measurement": "hygroscopicity", "setting": "[2]", "value": "not hygroscopic"}, {"measurement": "mass increase over the entire area", "setting": "[2]", "value": "negligibly small"}, {"measurement": "phase transition on storage", "setting": "[3]; 25°C and 50°C, after twelve weeks", "value": "no phase transition"}, {"measurement": "change in DSC, TGA, spectroscopy, X-ray powder diffraction and HPLC measurements on storage", "setting": "[3]; 25°C and 50°C, after 0, 1, 3 and 6 months", "value": "did not result in a significant change"}, {"measurement": "Purity", "setting": "[3]; 25 °C, 4 weeks, 40320 min, listed as 16*", "value": 99.09, "unit": "%"}, {"measurement": "Purity", "setting": "[3]; 25 °C, 12 weeks, 120960 min, listed as 16*", "value": 99.23, "unit": "%"}, {"measurement": "Purity", "setting": "[3]; 50 °C, 12 weeks, 120960 min, listed as 16*", "value": 99.25, "unit": "%"}, {"measurement": "Purity", "setting": "[3]; 50 °C, 24 weeks, 241920 min, listed as 16*", "value": 99.34, "unit": "%"}, {"measurement": "Purity", "setting": "[3]; no storage (initial value)", "value": 99.54, "unit": "%"}, {"measurement": "remaining at 672 h", "setting": "[3]; 25 °C, 4 weeks", "value": 98.3, "unit": "%"}, {"measurement": "remaining at 2016 h", "setting": "[3]; 25 °C, 12 weeks", "value": 99.3, "unit": "%"}, {"measurement": "remaining at 4032 h", "setting": "[3]; 25 °C, 24 weeks", "value": 99.4, "unit": "%"}, {"measurement": "remaining at 672 h", "setting": "[3]; 50 °C, 4 weeks", "value": 99.1, "unit": "%"}, {"measurement": "remaining at 2016 h", "setting": "[3]; 50 °C, 12 weeks", "value": 99.5, "unit": "%"}, {"measurement": "remaining at 4032 h", "setting": "[3]; 50 °C, 24 weeks", "value": 99.4, "unit": "%"}, {"measurement": "Purity", "setting": "[4]; 25 °C, 85% RH, 4 weeks, HPLC, 1 mg/2mL ACN, 40320 min, listed as 16*", "value": 99.10, "unit": "%"}, {"measurement": "Purity", "setting": "[4]; 25 °C, 85% RH, 12 weeks, HPLC, 1 mg/2mL ACN, 120960 min, listed as 16*", "value": 99.25, "unit": "%"}, {"measurement": "Purity", "setting": "[4]; 25 °C, 85% RH, 24 weeks, HPLC, 1 mg/2mL ACN, 241920 min, listed as 16*", "value": 99.75, "unit": "%"}, {"measurement": "phase transition on storage", "setting": "[4]; 25°C/85 % RH, after twelve weeks", "value": "no phase transition"}, {"measurement": "change in DSC, TGA, spectroscopy, X-ray powder diffraction and HPLC measurements on storage", "setting": "[4]; 25°C/approx. 85 % rel. humidity, after 0, 1, 3 and 6 months", "value": "did not result in a significant change"}, {"measurement": "Purity", "setting": "[4]; no storage (initial value), HPLC, 1 mg/2mL ACN", "value": 99.54, "unit": "%"}, {"measurement": "remaining at 672 h", "setting": "[4]; solid storage, 85% rh, 25 °C, 4 weeks, HPLC, 1 mg/2mL ACN", "value": 99, "unit": "%"}, {"measurement": "remaining at 2016 h", "setting": "[4]; solid storage, 85% rh, 25 °C, 12 weeks, HPLC, 1 mg/2mL ACN", "value": 99.3, "unit": "%"}, {"measurement": "remaining at 4032 h", "setting": "[4]; solid storage, 85% rh, 25 °C, 24 weeks, HPLC, 1 mg/2mL ACN", "value": 99.4, "unit": "%"}]}
